Several values for one entry are separate records, joined by “and”; a condition that tells them apart may be missing. Equal values may be shown once. Read-outs that look alike come from different tables or passages of the source.
Tests used:
[1] = biological target: T1, recombinant human ACE2 (rhACE2) (Homo sapiens, UniProt Q9BYF1); experiment: Surface plasmon resonance direct binding assay; settings: 10 µM injected on immobilized rhACE2
T1 construct: purchased Acrobiosystem
Experimental: Recombinant human ACE2-Fc tag (rhACE2) (Acrobiosystem) at 5 μg/mL in PBST was captured on a HC30M (Xantec) sensor chip after the immobilization of anti-Fc antibody (Biorad) at 25 μg/mL in acetate buffer pH 5.0 by classic amine coupling chemistry on a NHS/EDC activated surface, reaching a final immobilization level of ~ 1000 RU. Simultaneously, a mix of IgG antibodies at 25 μg/mL in acetate buffer pH 5.0 was immobilized on a parallel surface and used as reference.
To test the direct binding of rhACE2 and lurasidone, the drug was injected at 10 µM in PBST 0.1% DMSO for 200 seconds at 30 μl/min on both surfaces. In a different channel, we also flowed SARS-CoV-2 Spike protein RBD (Wuhan isotype) at 10 nM in PBST as a positive control.

[2] = system: ACE2 levels in HEK293-ACE2 cells; experiment: Western blot analysis of ACE2 expression; assay type: cell-based, Human; settings: 5 µM, 24 h, HEK293-ACE2 cell lysates
Experimental: HEK293-ACE2 cells were seeded (2.4 x 10^5 cells/well) on 12-well plates in complete DMEM medium with 10% FBS and incubated for 24 hours at 37°C in humidified 5% CO2. The medium was then replaced with a fresh one containing 5 µM lurasidone. Control cells were treated with an equivalent volume of vehicle only. After incubation for 3, 6, and 24 hours at 37°C in humidified 5% CO2 the medium was removed, the cells collected and lysed for 15 min at 4°C with 20 mM Tris-HCl, pH 7.5, containing 150 mM NaCl, 1 mM Na2EDTA, 1 mM EGTA, 1% NP-40, 1% sodium deoxycholate, 2.5 mM sodium pyrophosphate, 1 mM β-glycerophosphate, 1 mM Na3VO4 and 1 µg/ml leupeptin. Samples were centrifuged for 10 min at 16,100 x g and the protein content was quantified by using a BCA protein assay kit (Thermofisher, Rockford, USA). 10 µg of total proteins were loaded in each lane, immunoblotted using 10% bis-Tris gel (Invitrogen, Waltham, MA, USA), and transferred to a PVDF membrane (Millipore, Vimodrone, Milan, Italy). The membranes were incubated overnight at 4°C with an anti-ACE2 AC18Z mouse monoclonal antibody (1:200, Santa Cruz Biotechnology, Santa Cruz, CA, USA) or anti-β-actin mouse monoclonal antibody (1:5000, Sigma Aldrich). Peroxidase-conjugated anti-mouse IgG (1:5000, Sigma Aldrich) was used as the secondary antibody. Hybridization signals were detected with a ChemiDoc XRS Touch Imaging System (Bio-Rad).

[3] = system: lentiviral vector exposing the SARS-CoV-2 Spike protein, Wuhan isoform; assay type: cell-based; settings: 5 µM, 4 h pre-incubation, HEK293-ACE2, Wuhan Spike
[4] = Cell viability assay on MRC-5 cells; assay type: cell-based; settings: human, same conditions as antiviral assay
Experimental: Pre-seeded MRC-5 cells were treated with the drug at concentrations ranging from 1000 to 12.3 μM or equal volumes of DMSO as control, under the same experimental conditions for the antiviral assays. After incubation, the CellTiter 96 Proliferation Assay Kit (Promega, Madison, WI, USA) was used to determine the effect of lurasidone on cell viability. The effect on cell viability was expressed as a percentage, by comparing absorbances of treated cells with those of cells incubated with DMSO-treated control wells.
(§1) All data were analyzed with GraphPad Prism version 8.00 software. Results were expressed as mean values for three independent experiments performed in duplicate. […] Selectivity indexes were calculated as SI = CC50/EC50. The Student’s T-test was used to compare viral titers in virus inactivation assay. The viral titers of control and treated samples in time-of-addition assays were compared using a one-way analysis of variance (ANOVA) and a post-hoc Bonferroni test. Significance was set at p value <0.05 (*), <0.01 (**) and <0.001 (***).

[5] = system: HCoV-OC43; experiment: HCoV-OC43 time-of-addition assay; assay type: cell-based; settings: 50 µM; for antiviral activity, virus released in supernatant: MRC-5, MOI 0.1, 24 hours post-infection
[6] = biological target: T2, 3CL-Pro SARS-CoV-2 (Severe acute respiratory syndrome coronavirus 2, UniProt P0DTD1); experiment: biochemical
T2 construct: The SARS-CoV-2 nsp5 protease activity was measured in black 384 well plates

[7] = system: HCoV-OC43; experiment: HCoV-OC43 antiviral focus reduction assay; assay type: cell-based
Experimental: The antiviral efficacy of lurasidone was determined by focus reduction assay, as described elsewhere ([Milani et al., 2021]). Briefly, MRC-5 sub-confluent cells in 96-well plates were infected with HCoV-OC43 at a multiplicity of infection (MOI) of 0.001 FFU/cell and concurrently treated with increasing concentrations of drug (100 to 0.12 µM). After incubation at 34°C for 16 hours, infected foci were visualized with an indirect immunocytochemistry procedure, using a primary antibody directed against the nucleoprotein of HCoV-OC43 (MAB9013, Merck KGaA, Darmstadt, Germany) or a primary antibody directed against the dsRNA (10010500, Nordic-MUbio, Susteren, Netherlands).
as §1

[8] = biological target: T3, RdRp SARS-CoV-2 (Severe acute respiratory syndrome coronavirus 2, UniProt P0DTD1); experiment: biochemical
T3 construct: SARS-CoV-2 RdRp was expressed and purified as described; made in house

[9] = system: HCoV-OC43; experiment: HCoV-OC43 virus inactivation assay; assay type: cell-based; settings: 50 µM with 10^5 FFU for 2 h at 34°C
[10] = parameters: method as in Bawa and Scarff, 2015; settings: patients, minimal changes in the metabolic profile; ref Bawa and Scarff, 2015; cited from earlier work
[11] = system: SARS-CoV-2; experiment: SARS-CoV-2 virus inactivation (virucidal) assay; assay type: cell-based; settings: 5 μM incubated with SARS-CoV-2 for 2 hours, Vero E6 plaque assay
[12] = biological target: T4, PL-Pro SARS-CoV-2 (Severe acute respiratory syndrome coronavirus 2, UniProt P0DTD1); experiment: Biochemical assay for SARS-CoV-2 PL-Pro
T4 construct: purified recombinant SARS-CoV-2 RdRp, 3CL-Pro and PL-Pro proteins

[13] = system: SARS-CoV-2; experiment: microbe, parasite or virus in culture; assay type: cell-based
[14] = system: HCoV-OC43; experiment: HCoV-OC43 entry assay; assay type: cell-based; settings: 100-0.4 μM during virus entry, MRC-5, MOI 0.05
Experimental: The assay evaluates whether the drug inhibits the entry of virus into host cells. First, a fixed inoculum of HCoV-OC43 at MOI of 0.05 was allowed to attach to prechilled confluent cells, for 20 min at 4°C. Cells were then washed with cold medium three times to remove unbound virus, treated with serial dilutions of lurasidone (from 100 to 0.4 μM), and incubated for 1 h at 34°C to allow virus entry. After incubation, outer virions were removed with a 30 second treatment of citrate buffer (pH 3.0). Then, cells were washed with warm medium three times and treated as for the antiviral assay.

[15] = Cell viability, MTT assay; assay type: cell-based, Human; settings: human, HEK293-ACE2 cells, 10 µM, 24 hours administration
Experimental: (§2) HEK293-ACE2 cells were seeded (2 x 10^4 cells/well) on 96-well plates in a complete DMEM medium with 10% FBS. After incubation for 24 hours at 37°C in humidified 5% CO2, the medium was replaced with a fresh one containing lurasidone previously dissolved in Milli-Q water at 0.1 – 100 µM. Control cells were treated with an equivalent volume of vehicle only. Cells were incubated for 24 hours at 37°C in humidified 5% CO2, then the medium was replaced with a fresh one without lurasidone. After an additional incubation of 24 hours at 37°C in humidified 5% CO2, HEK293-ACE2 cells were treated with 5 mg/ml 3-(4,5-dimethylthiazol-2-yl)-2,5 diphenyltetrazolium bromide (MTT) (Sigma Aldrich, St. Louis, MO, USA, #M5655-1G) in 5 mM Phosphate Buffered Saline (PBS), pH 7.4. After incubation for 4 hours at 37°C, MTT was removed, and the cells resuspended in isopropanol containing 0.04 M HCl. The absorbance of the samples was determined at 560 nm using a spectrophotometer (Infinite M200, Tecan, Männedorf, Switzerland), and the cell viability was expressed as a percentage of Vehicle-treated cells.

[16] = system: HEK293-ACE2 cells; experiment: Cell viability, MTT assay; assay type: cell-based, Human; settings: 100 µM (maximum tested dose), 24 hours administration
Experimental: as §2

[17] = system: lentiviral vector exposing the SARS-CoV-2 Spike protein, B.1.351 SA isoform; assay type: cell-based; settings: 1 or 5 µM, 4 h pre-incubation, HEK293-ACE2, B.1.351 SA Spike
[18] = system: lentiviral vector exposing the SARS-CoV-2 Spike protein, B.1.1.7 UK isoform; assay type: cell-based; settings: 1 µM, 4 h pre-incubation, HEK293-ACE2, B.1.1.7 UK Spike

T1 sequence (Q9BYF1 18-805): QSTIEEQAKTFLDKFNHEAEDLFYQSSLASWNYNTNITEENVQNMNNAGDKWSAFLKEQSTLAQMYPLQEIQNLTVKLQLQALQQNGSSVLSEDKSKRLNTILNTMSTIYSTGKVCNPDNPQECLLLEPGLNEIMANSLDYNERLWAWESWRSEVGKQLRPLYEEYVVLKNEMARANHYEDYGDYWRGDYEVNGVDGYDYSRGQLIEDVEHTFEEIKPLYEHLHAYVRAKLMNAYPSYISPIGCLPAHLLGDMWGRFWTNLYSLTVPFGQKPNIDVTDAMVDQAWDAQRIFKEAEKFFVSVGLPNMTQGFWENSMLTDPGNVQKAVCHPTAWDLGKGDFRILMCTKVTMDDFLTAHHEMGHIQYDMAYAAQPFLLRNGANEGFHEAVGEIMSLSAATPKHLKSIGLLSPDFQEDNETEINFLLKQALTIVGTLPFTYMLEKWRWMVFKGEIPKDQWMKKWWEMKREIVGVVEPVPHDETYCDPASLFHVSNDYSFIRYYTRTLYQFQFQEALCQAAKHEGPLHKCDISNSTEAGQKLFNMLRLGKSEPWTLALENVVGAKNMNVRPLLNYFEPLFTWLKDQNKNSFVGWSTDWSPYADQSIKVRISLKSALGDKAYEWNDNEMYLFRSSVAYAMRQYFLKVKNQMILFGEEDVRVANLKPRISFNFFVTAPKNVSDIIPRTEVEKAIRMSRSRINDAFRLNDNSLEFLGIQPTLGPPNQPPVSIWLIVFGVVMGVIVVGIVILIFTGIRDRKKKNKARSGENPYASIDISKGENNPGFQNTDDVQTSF

With O=C1[C@@H]2[C@H]3CC[C@H](C3)[C@@H]2C(=O)N1C[C@@H]1CCCC[C@H]1CN1CCN(c2nsc3ccccc23)CC1 [Lurasidone, lurasidone] the “direct binding to rhACE2 (SPR)” value [1] was “not able to bind”, the “modification in the ACE2 levels” value [2] was “no significant modification” and the “inhibition of transduction (GFP-positive cells)” value (from here on “inhibition of transduction”) [3] was “active”. The CC50 [4] was over 1000 µM, the “reduction of virus titer” value ([5]; 18 hours post-infection treatment, p < 0.001) was “significant reduction” and the “antiviral activity, virus released in supernatant” value ([5]; co-treatment 1 hour during virus inoculum) was “not active”. The “inhibition of virus production” value ([5]; post-treatment 1, 4, 18 hours after infection, MRC-5, MOI 0.1) was “significantly inhibited virus production”, the “antiviral activity, virus released in supernatant” value ([5]; pre-treatment 1 hour before infection) was “not active” and the IC50 [6] was over 100 µM. It also gave a remaining activity at 100 µM ([6]; in the presence of 100 µM, read-out: Percentage of control activity, 3CL-Pro) of 87%, an EC50 ([7]; Betacoronavirus 1, OC43, MRC5, 16 h, read-out: EC50 (mean ± SD), viral marker NP (nucleoprotein), MRC-5 cells, MOI 0.001, 16 hours) of 8.3 µM and an EC50 ([7]; Betacoronavirus 1, OC43, MRC5, 16 h, read-out: EC50 (mean ± SD), viral marker dsRNA, MRC-5 cells, MOI 0.001, 16 hours) of 8.5 µM. For the same compound, the EC90 ([7]; Betacoronavirus 1, OC43, MRC5, read-out: EC90 (mean ± SD), viral marker NP (nucleoprotein), MRC-5 cells) was 23.5 µM, the EC90 ([7]; Betacoronavirus 1, OC43, MRC5, read-out: EC90 (mean ± SD), viral marker dsRNA, MRC-5 cells) was 11.9 µM and the EC50 ([7]; Betacoronavirus 1, OC43, both markers (NP and dsRNA)) was about 8 µM. The EC99 dose ([7]; MRC-5 cells, HCoV-OC43) was 50 µM, the “SI (CC50/EC50)” value ([7]; viral marker NP) was over 120.5 and the “SI (CC50/EC50)” value ([7]; viral marker dsRNA) was over 117.6. For the same compound, the IC50 ([8]; 50 nM enzyme) was over 100 µM, the remaining activity at 100 µM ([8]; in the presence of 100 µM, read-out: Percentage of control activity, RdRp) was 100% and the intrinsic virucidal activity [9] was “not endowed with intrinsic virucidal activity”. The “tolerability in clinical trials” value [10] was “good tolerability”, the virucidal activity [11] was “did not show any significant virucidal activity” and the IC50 [12] was 0.12 ± 0.03 µM. For the same compound, the “effect on viral replication” value [13] was “did not affect viral replication”, the “inhibition of viral replication” value [13] was 78% and 79% and 40% and the inhibition at 5 µM ([13]; Severe acute respiratory syndrome coronavirus 2, 24 h, read-out: inhibition of viral replication) was 76%. The “inhibition of virus entry into the host cell” value [14] was “does not act during the early steps of virus infection”, the viability at 24 h, 10 µM [15] was about 80% and the toxicity [16] was ~ 40%. For the same compound, the “inhibition of transduction” value [17] was “not effective” and the “inhibition of transduction” value [18] was “able to inhibit”.

From article PMC11625747, “The antipsychotic drug lurasidone inhibits coronaviruses by affecting multiple targets” (Frontiers in Cellular and Infection Microbiology, 2024)
